The values below come from patent publication US20260116920A1, “HUMAN TRANSFERRIN RECEPTOR BINDING PEPTIDE” (PEPTIDREAM INC., priority 2021, published 2026).

Positions of bridges follow the written chain, without caps; N, C: chain ends. Non-standard residues stand in square brackets, D forms with d. Residues, ends and D or L forms follow the SMILES beside them. *: point of attachment. Trp(1-CH2COOH) = N[C@@H](Cc1cn(CC(=O)O)c2ccccc12)C(=O)O; Phe(3-COOH) = N[C@@H](Cc1cccc(C(=O)O)c1)C(=O)O; NH(CH2CH2O)8Me = COCCOCCOCCOCCOCCOCCOCCOCCN*; NMePhe(3-Cl) = CN[C@@H](Cc1cccc(Cl)c1)C(=O)O; 3Pal(6-NH2) = Nc1ccc(C[C@H](N)C(=O)O)cn1; NMeY = CN[C@@H](Cc1ccc(O)cc1)C(=O)O; 3Pal = N[C@@H](Cc1cccnc1)C(=O)O; 4Pal = N[C@@H](Cc1ccncc1)C(=O)O; PEG4 = NCCOCCOCCOCCOCCC(=O)O; Carboxymethyl = O=C(O)C*

This assay deals with T1, human transferrin receptor (hTfR) (Homo sapiens, UniProt P02786).
T1 construct: made in house
T1 sequence (P02786 89-760 limits assumed): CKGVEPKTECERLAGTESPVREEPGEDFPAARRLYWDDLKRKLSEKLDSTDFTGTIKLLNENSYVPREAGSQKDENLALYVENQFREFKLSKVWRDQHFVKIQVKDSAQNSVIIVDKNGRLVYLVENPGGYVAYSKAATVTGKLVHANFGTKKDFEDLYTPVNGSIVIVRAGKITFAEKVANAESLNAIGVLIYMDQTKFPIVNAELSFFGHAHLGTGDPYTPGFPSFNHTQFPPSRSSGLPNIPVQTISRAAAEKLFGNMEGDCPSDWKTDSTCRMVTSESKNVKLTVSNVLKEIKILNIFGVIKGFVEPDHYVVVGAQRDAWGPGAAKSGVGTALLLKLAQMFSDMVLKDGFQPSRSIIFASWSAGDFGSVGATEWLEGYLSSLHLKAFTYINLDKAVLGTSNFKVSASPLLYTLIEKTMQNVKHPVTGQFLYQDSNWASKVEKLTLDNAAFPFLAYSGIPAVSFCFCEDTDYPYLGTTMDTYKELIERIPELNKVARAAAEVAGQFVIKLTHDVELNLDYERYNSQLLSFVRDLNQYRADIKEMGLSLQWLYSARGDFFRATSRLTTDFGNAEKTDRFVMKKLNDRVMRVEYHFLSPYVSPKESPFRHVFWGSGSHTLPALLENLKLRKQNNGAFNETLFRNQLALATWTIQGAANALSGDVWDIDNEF
In words: Evaluation of molecular interaction between transferrin receptor (hTfR) and peptide using surface plasmon resonance (SPR). The class given is binding. Conditions: surface plasmon resonance, binding to hTfR; KD class symbol; read-out: SPR (KD value). In outline:
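Binding kinetics of peptides to immobilized recombinant human TfR dimer were measured by SPR at 5–100 nM in a single-cycle format, with KD obtained from curve fitting.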
In general, Kd refers to the equilibrium constant for the complex coming apart. With `CC[C@H](C)[C@@H]1NC(=O)[C@H](Cc2cccnc2)NC(=O)[C@H](Cc2ccc(N)nc2)NC(=O)[C@H](CC(N)=O)NC(=O)[C@H](Cc2cn(CC(=O)O)c3ccccc23)NC(=O)[C@H](C(C)C)NC(=O)[C@H](Cc2cccc(Cl)c2)N(C)C(=O)[C@H](C(C)C)NC(=O)[C@H](C)NC(=O)CSC[C@@H](C(=O)NCCOCCOCCOCCOCCC(N)=O)NC(=O)[C@H](Cc2ccc(O)cc2)N(C)C(=O)[C@H](Cc2cccc(C(=O)O)c2)NC(=O)[C@H](CCCNC(=N)N)NC(=O)[C@H](CCCNC(=N)N)NC(=O)[C@H]([C@@H](C)CC)NC1=O` [compound 79] ({CH2CO}-AV[NMePhe(3-Cl)]V[Trp(1-CH2COOH)]N[3Pal(6-NH2)][3Pal]IIRR[Phe(3-COOH)][NMeY]C[PEG4]-NH2; thioether N-15), the Kd lay in the range of 1 to 100 nM.
In the case of `CC[C@H](C)[C@@H]1NC(=O)[C@H](Cc2ccc(OCC(=O)O)cc2)NC(=O)[C@H](Cc2ccc(N)nc2)NC(=O)[C@H](CC(N)=O)NC(=O)[C@H](Cc2cn(CC(=O)O)c3ccccc23)NC(=O)[C@H](C(C)C)NC(=O)[C@H](Cc2cccc(Cl)c2)N(C)C(=O)[C@H](C(C)C)NC(=O)[C@H](C)NC(=O)CSC[C@@H](C(=O)NCCOCCOCCOCCOCCC(N)=O)NC(=O)[C@H](Cc2ccc(O)cc2)N(C)C(=O)[C@H](Cc2ccncc2)NC(=O)[C@H](CCCNC(=N)N)NC(=O)[C@H](CCCNC(=N)N)NC(=O)[C@H]([C@@H](C)CC)NC1=O` [compound 80], the Kd lay in the range of 1 to 100 nM.
On to `CC[C@H](C)[C@@H]1NC(=O)[C@H](Cc2ccc(OCC(=O)O)cc2)NC(=O)[C@H](Cc2ccc(N)nc2)NC(=O)[C@H](CC(N)=O)NC(=O)[C@H](Cc2cn(CC(=O)O)c3ccccc23)NC(=O)[C@H](C(C)C)NC(=O)[C@H](Cc2cccc(Cl)c2)N(C)C(=O)[C@H](C(C)C)NC(=O)[C@H](C)NC(=O)CSC[C@@H](C(=O)NCCOCCOCCOCCOCCC(N)=O)NC(=O)[C@H](Cc2ccc(O)cc2)N(C)C(=O)[C@H](Cc2cccc(C(=O)O)c2)NC(=O)[C@H](CCCNC(=N)N)NC(=O)[C@H](CCCNC(=N)N)NC(=O)[C@H]([C@@H](C)CC)NC1=O` [compound 81] ({CH2CO}-AV[NMePhe(3-Cl)]V[Trp(1-CH2COOH)]N[3Pal(6-NH2)]Y(Carboxymethyl)IIRR[Phe(3-COOH)][NMeY]C[PEG4]-NH2; thioether N-15), for which the Kd fell in the range of 1 to 100 nM.
Then `CC[C@H](C)[C@@H]1NC(=O)[C@H](Cc2ccc(OCC(=O)O)cc2)NC(=O)[C@H](Cc2ccc(O)cc2)NC(=O)[C@H](CC(N)=O)NC(=O)[C@H](Cc2cn(CC(=O)O)c3ccccc23)NC(=O)[C@H](C(C)C)NC(=O)[C@H](Cc2cccc(Cl)c2)N(C)C(=O)[C@H](C(C)C)NC(=O)[C@H](C)NC(=O)CSC[C@@H](C(=O)NCCOCCOCCOCCOCCC(N)=O)NC(=O)[C@H](Cc2ccc(O)cc2)N(C)C(=O)[C@H](Cc2ccncc2)NC(=O)[C@H](CCC(=O)NCCOCCOCCOCCOCCOCCOCCOCCOC)NC(=O)[C@H](CCCNC(=N)N)NC(=O)[C@H]([C@@H](C)CC)NC1=O` [compound 82] ({CH2CO}-AV[NMePhe(3-Cl)]V[Trp(1-CH2COOH)]NYY(Carboxymethyl)IIRE(NH(CH2CH2O)8Me)[4Pal][NMeY]C[PEG4]-NH2; thioether N-15), with 1 to 100 nM; and `CC[C@H](C)[C@@H]1NC(=O)[C@H](Cc2cccnc2)NC(=O)[C@H](Cc2ccc(O)cc2)NC(=O)[C@H](CC(N)=O)NC(=O)[C@H](Cc2cn(CC(=O)O)c3ccccc23)NC(=O)[C@H](C(C)C)NC(=O)[C@H](Cc2cccc(Cl)c2)N(C)C(=O)[C@H](C(C)C)NC(=O)[C@H](C)NC(=O)CSC[C@@H](C(=O)NCCOCCOCCOCCOCCC(N)=O)NC(=O)[C@H](Cc2ccc(O)cc2)N(C)C(=O)[C@H](Cc2ccncc2)NC(=O)[C@H](CCC(=O)NCCOCCOCCOCCOCCOCCOCCOCCOC)NC(=O)[C@H](CCCNC(=N)N)NC(=O)[C@H]([C@@H](C)CC)NC1=O` [compound 83] ({CH2CO}-AV[NMePhe(3-Cl)]V[Trp(1-CH2COOH)]NY[3Pal]IIRE(NH(CH2CH2O)8Me)[4Pal][NMeY]C[PEG4]-NH2; thioether N-15), with 1 to 100 nM.
With `CC[C@H](C)[C@@H]1NC(=O)[C@H](Cc2cccnc2)NC(=O)[C@H](Cc2ccc(O)cc2)NC(=O)[C@H](CC(N)=O)NC(=O)[C@H](Cc2cn(CC(=O)O)c3ccccc23)NC(=O)[C@H](C(C)C)NC(=O)[C@H](Cc2cccc(Cl)c2)N(C)C(=O)[C@H](C(C)C)NC(=O)[C@H](C)NC(=O)CSC[C@@H](C(=O)NCCOCCOCCOCCOCCC(N)=O)NC(=O)[C@H](Cc2ccc(O)cc2)N(C)C(=O)[C@H](Cc2cccc(C(=O)O)c2)NC(=O)[C@H](CCC(=O)NCCOCCOCCOCCOCCOCCOCCOCCOC)NC(=O)[C@H](CCCNC(=N)N)NC(=O)[C@H]([C@@H](C)CC)NC1=O` [compound 84] ({CH2CO}-AV[NMePhe(3-Cl)]V[Trp(1-CH2COOH)]NY[3Pal]IIRE(NH(CH2CH2O)8Me)[Phe(3-COOH)][NMeY]C[PEG4]-NH2; thioether N-15), the Kd fell in the range of 1 to 100 nM.
On to `CC[C@H](C)[C@@H]1NC(=O)[C@H](Cc2cccnc2)NC(=O)[C@H](Cc2ccc(N)nc2)NC(=O)[C@H](CC(N)=O)NC(=O)[C@H](Cc2cn(CC(=O)O)c3ccccc23)NC(=O)[C@H](C(C)C)NC(=O)[C@H](Cc2cccc(Cl)c2)N(C)C(=O)[C@H](C(C)C)NC(=O)[C@H](C)NC(=O)CSC[C@@H](C(=O)NCCOCCOCCOCCOCCC(N)=O)NC(=O)[C@H](Cc2ccc(O)cc2)N(C)C(=O)[C@H](Cc2cccc(C(=O)O)c2)NC(=O)[C@H](CCC(=O)NCCOCCOCCOCCOCCOCCOCCOCCOC)NC(=O)[C@H](CCCNC(=N)N)NC(=O)[C@H]([C@@H](C)CC)NC1=O` [compound 85] ({CH2CO}-AV[NMePhe(3-Cl)]V[Trp(1-CH2COOH)]N[3Pal(6-NH2)][3Pal]IIRE(NH(CH2CH2O)8Me)[Phe(3-COOH)][NMeY]C[PEG4]-NH2; thioether N-15), for which the Kd fell in the range of 100 to 1000 nM.
The value for `CC[C@H](C)[C@@H]1NC(=O)[C@H](Cc2cccnc2)NC(=O)[C@H](Cc2ccc(N)nc2)NC(=O)[C@H](CC(N)=O)NC(=O)[C@H](Cc2cn(CC(=O)O)c3ccccc23)NC(=O)[C@H](C(C)C)NC(=O)[C@H](Cc2cccc(Cl)c2)N(C)C(=O)[C@H](C(C)C)NC(=O)[C@H](C)NC(=O)CSC[C@@H](C(=O)NCCOCCOCCOCCOCCC(N)=O)NC(=O)[C@H](Cc2ccc(O)cc2)N(C)C(=O)[C@H](Cc2ccncc2)NC(=O)[C@H](CCC(=O)NCCOCCOCCOCCOCCOCCOCCOCCOC)NC(=O)[C@H](CCCNC(=N)N)NC(=O)[C@H]([C@@H](C)CC)NC1=O` [compound 86] ({CH2CO}-AV[NMePhe(3-Cl)]V[Trp(1-CH2COOH)]N[3Pal(6-NH2)][3Pal]IIRE(NH(CH2CH2O)8Me)[4Pal][NMeY]C[PEG4]-NH2; thioether N-15) was 100 to 1000 nM; that for `CC[C@H](C)[C@@H]1NC(=O)[C@H](Cc2ccc(OCC(=O)O)cc2)NC(=O)[C@H](Cc2ccc(N)nc2)NC(=O)[C@H](CC(N)=O)NC(=O)[C@H](Cc2cn(CC(=O)O)c3ccccc23)NC(=O)[C@H](C(C)C)NC(=O)[C@H](Cc2cccc(Cl)c2)N(C)C(=O)[C@H](C(C)C)NC(=O)[C@H](C)NC(=O)CSC[C@@H](C(=O)NCCOCCOCCOCCOCCC(N)=O)NC(=O)[C@H](Cc2ccc(O)cc2)N(C)C(=O)[C@H](Cc2cccc(C(=O)O)c2)NC(=O)[C@H](CCC(=O)NCCOCCOCCOCCOCCOCCOCCOCCOC)NC(=O)[C@H](CCCNC(=N)N)NC(=O)[C@H]([C@@H](C)CC)NC1=O` [compound 87] ({CH2CO}-AV[NMePhe(3-Cl)]V[Trp(1-CH2COOH)]N[3Pal(6-NH2)]Y(Carboxymethyl)IIRE(NH(CH2CH2O)8Me)[Phe(3-COOH)][NMeY]C[PEG4]-NH2; thioether N-15) was 100 to 1000 nM.
